Measured values as given in patent US20240209456A1, “METHODS AND COMPOSITIONS RELATED TO CELL-CYCLE RNA's” (BETH ISRAEL DEACONESS MEDICAL CENTER, priority 2021, published 2024).
“Also recorded” adds a separate entry of the source.

Columns and labels:
acH2A.Z = experiment: nascent ChIP-qPCR (nasChIP) with acH2A.Z antibody; format: cell-based, human; conditions: for restoration of acH2A.Z at c-MYC locus after DRB reversal: HL-60, 2 hrs after DRB wash-out, MG149 200 μM, TH1834 500 μM; for restoration of acH2A.Z enrichment at PU1 locus after DRB reversal: HL-60, MG149 and TH1834 treatments
Experimental: (§1) To confirm the results of the ChIP-Seq, and to track the deposition of the H2A.Z, acH2A.Z nascent chromatin immunoprecipitation (nasChIP-PCR) was performed with the antibodies to H2A.Z, acH2A.Z and TIP60, as nasChIP-PCR can be used to track histone deposition. Cells were synchronized with a double thymidine block, released into S Phase and treated with DRB for 2 hrs. The medium was supplemented with the EdU DNA analog to enable collection of nascent chromatin DNA (FIG. 4A). […] The results of these experiments provide an important link between the suppressed c-MYC SPEARs expression and the reduced levels of the replacement histone H2A.Z, as an even greater degree of the loss of the acetylated acH2A.Z forms at the TSS of the c-MYC locus. Similar results were obtained for another gene locus, PU1 (FIG. 4F, right panels).
Cells were synchronized with a double thymidine block and released into S Phase with DMSO/DRB added. After 2 hours (during which H2A.Z levels remained unaffected, but SPEARs and mRNA levels drop, see FIG. 10A), cells were washed and then incubated for a further 2 hours with or without the TIP60 inhibitors. This interval is sufficient for the levels of both the c-MYC mRNAs and its SPEARs to be restored when the TIP60 inhibitors are absent (results shown in FIG. 11B). The medium was supplemented with the EU RNA and EdU DNA analogs to enable collection of nascent RNAs and newly formed chromatin that had escaped the drug-induced inhibition of transcription or acetylation. After 2 hours with the TIP60 inhibitors present (MG-149 at 200 μM and TH1834 at 500 μM), during which the levels of acH2A.Z dropped (see FIG. 11A), cells were crosslinked and subjected to nasChIP and nascent RNA expression analyses (nas-qRT-PCR) (FIG. 6B). Collected RNAs were biotinylated by click chemistry, isolated on streptavidin beads and analyzed by nas-qRT-PCR (see “Methods” below for details; FIG. 8A; bottom panel).
To further confirm that SPEARs realize their c-MYC regulatory function directly through the TIP60/acH2A.Z pathway, the differences in chromatin occupancy of H2A.Z, acH2A.Z and TIP60 were assessed after inhibition of transcription (“DRB”), reversal of inhibition (“DRB REV”) and reversal of inhibition in the presence of the two TIP60 inhibitors, using nasChIP-qPCR. […] By analyzing the nascent RNAs and chromatin, only the immediate changes in c-MYC expression and TIP60, acH2A.Z and H2A.Z occupancy were examined within the locus as imposed by the inhibition of transcription and/or acetylation. […] When the two HAT inhibitors are present, the reversal of transcriptional inhibition can only restore the enrichment levels of the unmodified H2A.Z and TIP60 (FIG. 6D; left and right panels), but not the levels of acH2A.Z (middle panel). […] Furthermore, no enrichments of H2A.Z, acH2A.Z or TIP60 was detected within the Gene Desert locus (FIG. 11C). […] Similar results were obtained for the PU.1 locus (FIG. 11D and FIG. 11E). These findings using nasChIP are in line with the general trend obtained globally by ChIP-Seq. (FIG. 4C).
Nascent RNA/DNA capture was performed using Click-iT Nascent RNA Capture Kit (ThermoFisher) according to the manufacturer's instructions with minor modifications. Briefly, 1. Labeling the cells with EU/EdU. 200 mM EU or 30 mM EdU stock solutions were added to the cells, to a final concentration 0.5 mM or 30 μM, respectively. 2. Incubation. The cells were incubated for 1 or 2 hours. 3. RNA/DNA isolation. The cells were harvested and the RNA/DNA were isolated and dissolved in 14 μL of H2O. 4. Biotinylation of RNA/DNA by Click reaction. Click-iT reaction cocktail (50 μL per reaction) was prepared accordingly to manufacturer's instructions: a mixture containing 1× Click-iT EU buffer; 2 mM CuSO4; 1 mM Biotin azide; 13.25 μL of the isolated RNA; 10 mM Click-iT reaction buffer additive 1; 12 mM Click-iT reaction buffer additive 2 was prepared. After adding each component, the reaction cocktail was gently mixed by vortexing. […]

H2A.Z = experiment: nascent ChIP-qPCR (nasChIP) with H2A.Z antibody; format: cell-based, human; conditions: for restoration of H2A.Z distribution at c-MYC locus after DRB reversal: HL-60, 2 hrs after DRB wash-out, MG149 200 μM, TH1834 500 μM
Experimental: as §1
Cells were synchronized with a double thymidine block and released into S Phase with DMSO/DRB added. After 2 hours (during which H2A.Z levels remained unaffected, but SPEARs and mRNA levels drop, see FIG. 10A), cells were washed and then incubated for a further 2 hours with or without the TIP60 inhibitors. This interval is sufficient for the levels of both the c-MYC mRNAs and its SPEARs to be restored when the TIP60 inhibitors are absent (results shown in FIG. 11B). […] Collected RNAs were biotinylated by click chemistry, isolated on streptavidin beads and analyzed by nas-qRT-PCR (see “Methods” below for details; FIG. 8A; bottom panel).
To further confirm that SPEARs realize their c-MYC regulatory function directly through the TIP60/acH2A.Z pathway, the differences in chromatin occupancy of H2A.Z, acH2A.Z and TIP60 were assessed after inhibition of transcription (“DRB”), reversal of inhibition (“DRB REV”) and reversal of inhibition in the presence of the two TIP60 inhibitors, using nasChIP-qPCR. […] Furthermore, no enrichments of H2A.Z, acH2A.Z or TIP60 was detected within the Gene Desert locus (FIG. 11C). […]

[1] = HL-60 released into S Phase, DRB 2 hrs

SMILES	acH2A.Z enrichment at PU1 locus (acH2A.Z; HL-60, DRB treatment)	acH2A.Z enrichment at c-MYC locus (acH2A.Z; [1])	H2A.Z enrichment at c-MYC locus (H2A.Z; [1])	restoration of acH2A.Z at c-MYC locus after DRB reversal (acH2A.Z)	restoration of acH2A.Z enrichment at PU1 locus after DRB reversal (acH2A.Z)	restoration of H2A.Z distribution at c-MYC locus after DRB reversal (H2A.Z)
OC[C@H]1O[C@@H](n2cnc3cc(Cl)c(Cl)cc32)[C@H](O)[C@@H]1O [DRB, 5,6-Dichlorobenzimidazole 1-β-D-ribofuranoside]	loss	diminished enrichment and loss	diminished enrichment; also recorded: partial loss	–	–	–
CCCCCCCc1ccc(CCc2cccc(O)c2C(=O)O)cc1 [MG149]	–	–	–	prevents the restoration	preventing the restoration	only slightly affecting
O=C(O)Cn1nnc(-c2ccc(CN(CCCCOc3ccc(CN4CCCC4)cc3)CCc3ccccc3)cc2)n1 [TH1834]	–	–	–	prevents the restoration	preventing the restoration	only slightly affecting
